The values that follow come from patent US20050267020A1, “Polypeptides derived from inducible hsp70 and pharmaceutical compositions containing the same” (priority 2001, published 2005).

In experiment [1] the test system is MCF-7 and SAOS tumor cell lines. Briefly: Recognition by murine CTL of epitopes at the surface of human tumor cells, TNF-α secretion assay. It is filed as cell-based. The settings on record: HLA-A*0201+ Hsp70+ tumor cells. An excerpt: CTL recognition of tumoral cells is expressed as CTL secretion of TNF-α dosed in supernatant (X Axis, TNF-α ranges from 0 to 1000 pg/ml) after contact with the cells. Upper to lower bars represent the different cells and reagents in contact with CTL, respectively: 2 negative controls (M113, M44), SAOS, MCF-7, MCF-7 blocked with anti-class I (w6/32) antibody before mixed culture, and MCF-7 blocked with an irrelevant antibody before mixed culture.
TNF-α Secretion Assay. Transfected COS cells on day 4 or 10^5 target tumor cells were plated in 50 μL RPMI 10% FCS and when necessary incubated with 10 μM peptide for 1 hour. In blocking experiments, anti-HLA class I antibody w6/32 or an irrelevant antibody were incubated with target cells for 1 h30. 5×10^4 T cells were then added in 50 μL RPMI 10% FCS and incubated for 6 hours. Each condition was tested in quadruplicates. 50 μL of the supernatant was collected. Standard dilutions were prepared in 50 μL with final doses of TNF-α (kindly provided by I. Apfler, Bender Wien, Austria) ranging from 10^4 to 0.08 pg/mL. On both the supernatants and the standards were added 50 μL of 3×10^4 TNF-α sensitive WEHI-164c13 cells. They were incubated for 16 hours at 37° C. (23). Inhibition of cell proliferation was evaluated by the MTT colorimetric method. Briefly, 50 μL of MTT at 2.5 mg/mL (Sigma-Aldrich) was added and incubated for 4 hours at 37° C. Cells were then lyzed with 100 μL of a pH4.7 33% N,N-dimethyl formamide (Sigma-Aldrich) 20% SDS solution in water. Two hours after cells lysis, OD was measured at 550 nm on a Dynatech MR5000 spectrophotometer. TNF-α quantitation was calculated by linear interpolation with the standard dilutions.
We studied whether the over-expression of Hsp70 described in certain tumor cell lines was high enough to enable these epitopes to be presented at the surface of tumor cells. We addressed this question with our already available high-avidity murine CTLs, hypothesizing that such a high CTL avidity enables the recognition of the highest-Hsp70 expressing human tumor cells. […]

Experiment [2] addresses T1, HLA-A*0201 (Homo sapiens, UniProt P04439, D140Y/D185E/D98H/E176V/E277Q/G131W/G231S/I119V/I121R/I166T/I218V/L300P/L318F/N151K/N90K/P208A/P217A/Q86G/Q94H/R138H/R169H/T345S).
T1 construct: Tap−/− cells expressing the studied HLA-class I molecule; endogenous in cells; host or cells: T2 cells (Tap-/-, HLA-A*0201)
Briefly: Measurement of peptide relative affinity to HLA-A*0201 on T2 cells. The conditions noted are these: Relative Affinity determination. The class given is binding. The protocol:
Measurement of Peptide Relative Affinity to HLA class I. Tap−/− cells expressing the studied HLA-class I molecule (3×10^5 cells/mL) were incubated with various concentrations of peptides ranging from 100 μM to 0.1 μM in serum-free RPMI 1640 medium supplemented with 100 ng/ml of human β-2m at 37° C. for 16 hours. Cells were then washed twice and stained with the specific anti-class I mAb followed by FITC conjugated goat anti mouse Ig mAb to quantify the expression of HLA-A*0201. For each peptide concentration, the HLA-specific staining was calculated as the % of the staining obtained with 100 μM of the reference peptide. The relative affinity (RA) is determined as: RA=(Concentration of each peptide that induces 20% of HLA expression/Concentration of the reference peptide that induces 20% of HLA expression). The lower the RA-value, the stronger is the peptide binding to HLA. The mean RA value for each peptide is determined from at least three independent experiments. […]
The affinity of each peptide was assayed experimentally by determination of the Relative Affinity: the necessary peptide dose to stabilise a reference quantity of HLA-A*0201 molecules at the surface of T2 cells; and the stability of each peptide was assayed by determination of the half-life of the peptide/HLA-A*0201 molecule complex (DC50: dissociation complex 50).

For LLLLDVAPL [HSP 391], the “presentation of the epitope at the surface of Hsp70 over-expressing human tumor cells” value in experiment [1] is listed as “demonstrated”. As for LMGDKSENV [HSP 380], in experiment [1], the “presentation of the epitope at the surface of Hsp70 over-expressing human tumor cells” value is on record as “demonstrated”.

On to YLGYPVTNAV [HSP 134(10)], for which the “affinity for HLA-A*0201 (in words)” value in experiment [2] was “strong affinity”.
